# Results: publication PMC12775434, “Ultra-large virtual screening unveils potent agonists of the neuromodulatory orphan receptor GPR139” (Nature Communications, 2025)
# Where “and” joins values, the source holds several entries; their conditions need not be identical. Equal entries are not always repeated.
# Columns and labels:
# Assay type in all cases: cell-based
# [1] = target: T1, human muscarinic acetylcholine M1 receptor (M1R) (Homo sapiens, UniProt P11229); experiment: Ca2+ mobilization counter-screen in M1R-CHOk1 cells; settings: individual replicates (Supplementary Figure 5);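 further: 10 µM test compound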
# T1 sequence (P11229 1-460): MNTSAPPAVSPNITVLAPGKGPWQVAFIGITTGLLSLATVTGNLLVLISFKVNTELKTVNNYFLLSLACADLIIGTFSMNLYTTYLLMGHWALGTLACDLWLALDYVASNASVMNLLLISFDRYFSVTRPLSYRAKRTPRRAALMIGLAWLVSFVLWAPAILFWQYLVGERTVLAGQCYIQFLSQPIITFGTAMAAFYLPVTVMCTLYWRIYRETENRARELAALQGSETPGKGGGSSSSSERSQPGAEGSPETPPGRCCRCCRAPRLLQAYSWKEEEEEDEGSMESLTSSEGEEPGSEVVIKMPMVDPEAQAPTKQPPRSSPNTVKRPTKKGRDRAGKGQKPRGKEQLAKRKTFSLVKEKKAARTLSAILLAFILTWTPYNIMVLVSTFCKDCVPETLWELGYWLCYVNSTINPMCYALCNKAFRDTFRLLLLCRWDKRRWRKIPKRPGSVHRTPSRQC
# Outline: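 Counter-screen used CHO-K1 cells stably carrying human M1R, Fluo-4 AM-loaded (2 µM, 1 h, 37 °C). Calcium signal measured at 485/525 nm after compound addition.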
# [2] = target: T2, GPR139 (Homo sapiens, UniProt Q6DWJ6); experiment: Ca2+ mobilization assay, antagonist mode (EC80 800 nM Lundbeck Cmp 1a after 20 min preincubation), GPR139-CHOk1; settings: individual replicates (Supplementary Figure 4)
# T2 sequence (Q6DWJ6 1-353): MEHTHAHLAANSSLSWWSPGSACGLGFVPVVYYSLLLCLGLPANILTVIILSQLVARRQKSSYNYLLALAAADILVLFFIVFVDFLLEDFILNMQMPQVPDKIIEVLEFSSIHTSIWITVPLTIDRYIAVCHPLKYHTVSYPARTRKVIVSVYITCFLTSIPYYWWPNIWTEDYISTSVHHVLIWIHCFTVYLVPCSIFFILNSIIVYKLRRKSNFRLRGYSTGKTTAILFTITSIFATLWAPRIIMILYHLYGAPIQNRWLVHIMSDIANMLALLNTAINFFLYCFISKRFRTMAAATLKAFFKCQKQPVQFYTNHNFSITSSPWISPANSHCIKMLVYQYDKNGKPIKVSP
# Outline: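 Antagonist mode: 800 nM (EC80) reference agonist Lundbeck Cmp 1a added following 20 min pre-incubation with 10 µM compound. GPR139-CHOk1 cells, Fluo-4 dye, probenecid-containing HEPES buffer pH 7.4; intracellular Ca2+ measured at 37 °C (ex 485, em 525 nm).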
# [3] = target: T2, GPR139; experiment: Ca2+ mobilization assay, agonist mode, stable GPR139-CHOk1 cell line; settings: for EC50 / Emax: Supplementary Table 2, mean ± SEM; for EC50: read-out: pEC50 Ca2+ (converted); for Emax: normalized to Lundbeck Cmp 1a, read-out: Emax (%) Ca2+
# Outline: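 Agonist activity of compounds is assessed in stably transfected CHO-K1 cells using the calcium dye Fluo-4 at 37 °C in HEPES-buffered HBSS (pH 7.4). Efficacy is expressed relative to the reference agonist Lundbeck Cmp 1a, set as 100%.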
# [4] = Agonist mode, individual replicates (Supplementary Figure 4)
# [5] = log [Compound] M = -4.5, individual replicate columns
# [6] = log [Compound] M = -5.0, individual replicate columns
# [7] = log [Compound] M = -5.5, individual replicate columns
# [8] = log [Compound] M = -6.0, individual replicate columns
# [9] = log [Compound] M = -6.5, individual replicate columns
# [10] = log [Compound] M = -7.0, individual replicate columns
# [11] = log [Compound] M = -7.5, individual replicate columns
# [12] = log [Compound] M = -8.0, individual replicate columns
# [13] = log [Compound] M = -8.5, individual replicate columns
# [14] = log [Compound] M = -9.0, individual replicate columns
EC50 [3] [µM],Emax [3] [%],SMILES,Ca2+ signal (% of Carbachol) [1],Ca2+ signal (% of Cmp 1a) [2],"Ca2+ signal (% of Cmp 1a) [3, 4]","Ca2+ signal (% of Cmp 1a) [3, 5]","Ca2+ signal (% of Cmp 1a) [3, 6]","Ca2+ signal (% of Cmp 1a) [3, 7]","Ca2+ signal (% of Cmp 1a) [3, 8]","Ca2+ signal (% of Cmp 1a) [3, 9]","Ca2+ signal (% of Cmp 1a) [3, 10]","Ca2+ signal (% of Cmp 1a) [3, 11]","Ca2+ signal (% of Cmp 1a) [3, 12]","Ca2+ signal (% of Cmp 1a) [3, 13]","Ca2+ signal (% of Cmp 1a) [3, 14]"
2.51,90 ± 8,"Cc1nc(-c2nc(CC(=O)NC(C)c3ccccc3)no2)co1 (stereo not drawn) [Compound 1.29, CC(C1=CC=CC=C1)NC(CC2=NOC(C3=COC(C)=N3)=N2)=O]",-4.71 % of Carbachol and 3.73 % of Carbachol and 1.63 % of Carbachol,41 % of Cmp 1a and 13 % of Cmp 1a and 3 % of Cmp 1a,64 % of Cmp 1a and 49 % of Cmp 1a and 69 % of Cmp 1a,126 % of Cmp 1a and 100 % of Cmp 1a and 74 % of Cmp 1a,67 % of Cmp 1a and 101 % of Cmp 1a and 61 % of Cmp 1a,46 % of Cmp 1a and 95 % of Cmp 1a and 41 % of Cmp 1a,17 % of Cmp 1a and 47 % of Cmp 1a and 13 % of Cmp 1a,0.562 % of Cmp 1a and 21 % of Cmp 1a and 3 % of Cmp 1a,-7 % of Cmp 1a and 12 % of Cmp 1a and 3 % of Cmp 1a,-2.32 % of Cmp 1a and 6.5 % of Cmp 1a and 3.51 % of Cmp 1a,0.891 % of Cmp 1a and 5.39 % of Cmp 1a and 3 % of Cmp 1a,-0.262 % of Cmp 1a and 8 % of Cmp 1a and -2.12 % of Cmp 1a,-0.615 % of Cmp 1a and 11 % of Cmp 1a and -1.07 % of Cmp 1a
2.51,79 ± 3,"Cc1cc(-c2nc(CC(=O)NC(C)c3ccccc3)no2)on1 (stereo not drawn) [Compound 1.30, CC(C1=CC=CC=C1)NC(CC2=NOC(C3=CC(C)=NO3)=N2)=O]",4 % of Carbachol and -9 % of Carbachol and 13 % of Carbachol,46 % of Cmp 1a and 28 % of Cmp 1a and 13 % of Cmp 1a,70 % of Cmp 1a and 59 % of Cmp 1a and 57 % of Cmp 1a,86 % of Cmp 1a and 79 % of Cmp 1a and 75 % of Cmp 1a,85 % of Cmp 1a and 68 % of Cmp 1a (2×),52 % of Cmp 1a and 50 % of Cmp 1a (2×),-11 % of Cmp 1a and 14 % of Cmp 1a and 19 % of Cmp 1a,-12 % of Cmp 1a and 7 % of Cmp 1a (2×),-10 % of Cmp 1a and 8 % of Cmp 1a and -3 % of Cmp 1a,-14 % of Cmp 1a and 7 % of Cmp 1a and -8 % of Cmp 1a,-5.33 % of Cmp 1a and 5.67 % of Cmp 1a and 1.67 % of Cmp 1a,-11 % of Cmp 1a and -3 % of Cmp 1a and 1.67 % of Cmp 1a,10 % of Cmp 1a and 7 % of Cmp 1a and 3.67 % of Cmp 1a
3.16,86 ± 5,"Cc1ccc(-c2nc(CC(=O)NC(C)c3ccccc3)no2)nc1C (stereo not drawn) [Compound 1.31, CC(C1=CC=CC=C1)NC(CC2=NOC(C3=NC(C)=C(C)C=C3)=N2)=O]",-8 % of Carbachol and 0.74 % of Carbachol and -0.0562 % of Carbachol,38 % of Cmp 1a and 34 % of Cmp 1a and 35 % of Cmp 1a,66 % of Cmp 1a and 63 % of Cmp 1a and 64 % of Cmp 1a,86 % of Cmp 1a and 82 % of Cmp 1a and 66 % of Cmp 1a and 84 % of Cmp 1a and 90 % of Cmp 1a,64 % of Cmp 1a and 55 % of Cmp 1a and 44 % of Cmp 1a and 70 % of Cmp 1a and 87 % of Cmp 1a,36 % of Cmp 1a and 30 % of Cmp 1a and 18 % of Cmp 1a and 73 % of Cmp 1a and 76 % of Cmp 1a,7 % of Cmp 1a and 7.42 % of Cmp 1a and 11 % of Cmp 1a and 39 % of Cmp 1a and 38 % of Cmp 1a,11 % of Cmp 1a and -0.0559 % of Cmp 1a and -2.48 % of Cmp 1a and 12 % of Cmp 1a and 13 % of Cmp 1a,-0.363 % of Cmp 1a and -3.44 % of Cmp 1a and 5.45 % of Cmp 1a and 7 % of Cmp 1a and 2.52 % of Cmp 1a,-1.4 % of Cmp 1a and 1.28 % of Cmp 1a and 5 % of Cmp 1a and 4.53 % of Cmp 1a and 3 % of Cmp 1a,2 % of Cmp 1a and 3.59 % of Cmp 1a and 6 % of Cmp 1a and 2.52 % of Cmp 1a and -0.475 % of Cmp 1a,1.45 % of Cmp 1a and 1.69 % of Cmp 1a and 3 % of Cmp 1a and 2.45 % of Cmp 1a and -0.45 % of Cmp 1a,1.77 % of Cmp 1a and -0.256 % of Cmp 1a and 3.41 % of Cmp 1a and 8 % of Cmp 1a and 5 % of Cmp 1a

# The remaining lines, values behind:
SMILES,EC50 [3] [µM],Emax [3] [%],Ca2+ signal (% of Carbachol) [1],Ca2+ signal (% of Cmp 1a) [2],"Ca2+ signal (% of Cmp 1a) [3, 4]","Ca2+ signal (% of Cmp 1a) [3, 5]","Ca2+ signal (% of Cmp 1a) [3, 6]","Ca2+ signal (% of Cmp 1a) [3, 7]","Ca2+ signal (% of Cmp 1a) [3, 8]","Ca2+ signal (% of Cmp 1a) [3, 9]","Ca2+ signal (% of Cmp 1a) [3, 10]","Ca2+ signal (% of Cmp 1a) [3, 11]","Ca2+ signal (% of Cmp 1a) [3, 12]","Ca2+ signal (% of Cmp 1a) [3, 13]","Ca2+ signal (% of Cmp 1a) [3, 14]"
"Cc1ccc(-c2nc(CC(=O)NC(C)c3ccccc3)no2)cn1 (stereo not drawn) [Compound 1.32, CC(C1=CC=CC=C1)NC(CC2=NOC(C3=CN=C(C)C=C3)=N2)=O]",3.16,82 ± 9,-19 % of Carbachol and -6 % of Carbachol and 8 % of Carbachol,66 % of Cmp 1a and 64 % of Cmp 1a and 48 % of Cmp 1a,72 % of Cmp 1a and 83 % of Cmp 1a,119 % of Cmp 1a and 81 % of Cmp 1a and 67 % of Cmp 1a,69 % of Cmp 1a (2×) and 43 % of Cmp 1a,37 % of Cmp 1a and 66 % of Cmp 1a and 27 % of Cmp 1a,13 % of Cmp 1a and 24 % of Cmp 1a and -2 % of Cmp 1a,-0.322 % of Cmp 1a and 4.26 % of Cmp 1a and 0.586 % of Cmp 1a,-6.64 % of Cmp 1a and 3.41 % of Cmp 1a and 1.32 % of Cmp 1a,-5 % of Cmp 1a and 2.31 % of Cmp 1a and 1.1 % of Cmp 1a,10 % of Cmp 1a and 3 % of Cmp 1a and 2.26 % of Cmp 1a,1.63 % of Cmp 1a and 4.29 % of Cmp 1a and 1.12 % of Cmp 1a,-8 % of Cmp 1a and 9 % of Cmp 1a and -2.5 % of Cmp 1a
"Cc1nonc1Cc1nc(CC(=O)NC(C)c2ccccc2)no1 (stereo not drawn) [Compound 1.33, CC(C1=CC=CC=C1)NC(CC2=NOC(CC3=NON=C3C)=N2)=O]",3.98,88 ± 2,-5 % of Carbachol and 8 % of Carbachol and 10 % of Carbachol,30 % of Cmp 1a and 49 % of Cmp 1a and 42 % of Cmp 1a,66 % of Cmp 1a and 46 % of Cmp 1a and 64 % of Cmp 1a,85 % of Cmp 1a (2×) and 90 % of Cmp 1a and 83 % of Cmp 1a,66 % of Cmp 1a and 64 % of Cmp 1a and 75 % of Cmp 1a and 85 % of Cmp 1a,43 % of Cmp 1a and 39 % of Cmp 1a and 20 % of Cmp 1a and 51 % of Cmp 1a,15 % of Cmp 1a and 21 % of Cmp 1a and 26 % of Cmp 1a and -5 % of Cmp 1a,7 % of Cmp 1a and 26 % of Cmp 1a and 10 % of Cmp 1a and -17 % of Cmp 1a,-3.33 % of Cmp 1a and 29 % of Cmp 1a and 0 % of Cmp 1a and -12 % of Cmp 1a,3 % of Cmp 1a and 6.33 % of Cmp 1a and 6 % of Cmp 1a and -13 % of Cmp 1a,1 % of Cmp 1a and 1.67 % of Cmp 1a and 3 % of Cmp 1a and -15 % of Cmp 1a,1.33 % of Cmp 1a (2×) and -3 % of Cmp 1a and -12 % of Cmp 1a,4.33 % of Cmp 1a and 6.33 % of Cmp 1a and 12 % of Cmp 1a and -16 % of Cmp 1a
